These results are taken from patent US4673678A, “Water soluble derivatives of fredericamycin A” (The United States of America as represented by the …, priority 1986, dated 1987).

Counter-ions that a name gives are not always drawn. Like-named read-outs stand apart in the source and are kept apart here.

As a reminder, the solubility is the concentration that dissolves in the medium under given conditions.

Data set [1] has as its system P388 ascites murine leukemia. In words: in vitro cytotoxicity, Microculture Tetrazolium Assay (MTA), P388. It counts as cell-based. The following applies: P388, 5 days culture, FIG. 5. An excerpt:
The assay used for determining in vitro cytotoxic activity of alkali metal salt of FMA is known as "Microculture Tetrazolium Assay" (MTA) developed by the in vitro Cancer Pharmacology R & D Laboratory at NCI-FCRF. The method utilized is a modification of Procedure by T. Mosmann et al., (J. Immunol. Meth. 65:55, 1983 and 70:257, 1984) described by M. C. Alley et al (Proc. AACR. 27:389, 1986). The testing of alkali metal salt of FMA is done using P388 acites murine leukemia as the test system at a inoculation density of about 1000 cells per well and culture duration of 5 days, with various concentration levels of alkali metal salt of FMA vs fredericamycin A. The concentration range could be from 0.1 μg to 10 μg per ml. The results are recorded as percent of control O.D. for each sample dilution.

In data set [2] the test system is fungi (Penicillium notatum). In words: antimicrobial activity, disc method, fungi. It counts as cell-based. Particulars: concentration 0.025 to 5 μg/ml. How it is done:
(§1) Protocol for determining antimicrobial activity against Bacillus subtilis and Penicillium notatum
(§2) These were performed by Disc method, using standard assay procedures and the respective microorganism in each case. 15 μl of each sample in DMSO-H H2 O (1:1) is pipetted on to separate 0.25" absorbent paper disc and the assay is performed following routine techniques well known in the art. Zone sizes are read after incubation overnight (Bacillus subtilis) and after 4 days of incubation (Penicillium notatum) at various concentrations.

Data set [3] is described as follows: solubility. It counts as physicochemical.
A short description of another data set: stability. It counts as physicochemical.
Another data set has as its system P388 Lymph. Leukemia. In words: in vivo antitumor activity against P388 leukemia. The following applies: for % T/C / % T/C: toxicity: i.p. Further details: species or system CD2F1 mice. The procedure:
The antitumor activity is determined by contracted accessary testing services according to the National Cancer Institute (NCI) guidelines for natural products (Geran et al. protocols for Screening Chemical Agents and Natural Products Against Animal Tumors and other Biological Systems. Cancer Chemother. Rep. part 3, 3:7-61, 1972; Schepartz: Antitumor Screening Procedures of the National Cancer Institute. Japan J. Antibiotics 30 (Supl): 35-40, 1977.)
Alkali metal salt of FMA is tested in vivo against P338 leukemia. The test is carried out using male CD2F1 mice (wt.=18 g±3 g) in one experiment and female mice (wt, 17 g±3.0 gm) in another experiment. […]
*T/C is the ratio expressed in percent of the median survival time of the
treated group divided by the median survival time of the control group.
NCI criteria of positive (moderate) activity in P388 Leukemia is indicate
by a T/C value of 120%. A T/C value of ≥ 175% is indicative of
**DMSO = Dimethylsulfoxide; i.p = intraperitoneal route of injection.
Potassium salt of fredericamycin A was dissolved in water only.

A short description of another data set: pH of aqueous solution. Format: physicochemical.
Data set [4] deals with gram positive bacteria (Bacillus subtilis). In words: antimicrobial activity, disc method, bacteria. Format: cell-based. Particulars: concentration 0.025 to 5 μg/ml. How it is done: as §1, §2
Data set [5] in a line: solubility. Format: physicochemical. The following applies: for solubility: water. The procedure: The potassium salt of fredericamycin A (NSC #601617) is soluble in water with hand shaking for 1 minute, followed by vortexing for 3 minutes. The solubility is about 1.0 mg/ml and gives a transparent blue solution, pH 8.65 with no residue upon membrane filtration (0.22μ, HA, Millipore Products).
Fredericamycin A (15 mg, 0.0278 mmols) is treated with NaOH solution, 1:3 mols (7.65 mls; 0.0109N, degased previously and cooled to 0° C.) in pyridine solution at 0° C. (2.5 ml, degased) under N2 atmosphere. Reaction is carried out by stirring magnetically for 60 minutes under N2 atmosphere. (40 minutes at 0° C. and 20 minutes at 15° C.). The progress of reaction is followed by TLC, HPLC (of hydrolysed product of the Rx mixture) and UV. The resultant blue-green clear reaction mixture is frozen (-70° C.) and lyophilized (48 hrs) until a solid is obtained. […] It is soluble in water (0.5 mg/ml) with hand shake and sonication (15 minutes). […] TLC and HPLC (after hydrolysis) show single spot and single peak respectively showing that the product is pure.
The first indication of the salt formation is observed by solubility studies in water.

Another data set in a line: hygroscopicity. Format: physicochemical.
Another data set deals with Gram-positive bacteria. Particulars: cited from earlier work.
The test system of a further data set is C38 colon tumor. Particulars: in vivo; cited from earlier work.
The next data set has as its system Lewis lung carcinoma. Particulars: in vivo; cited from earlier work.
The next data set relates to CD8F mouse mammary tumor. The following applies: in vivo; cited from earlier work.
Another data set concerns Gram-negative bacteria. The following applies: cited from earlier work.
In another data set the test system is LX-1 lung xenograft. Particulars: in vivo; cited from earlier work.
Another data set deals with fungi. Particulars: cited from earlier work.
For data set [6] the following is noted: general; precluded further toxicological and pharmacological studies; cited from earlier work.
In the next data set the test system is MX-1 breast xenograft. Particulars: in vivo; cited from earlier work.
The next data set deals with mouse leukemia P388. Particulars: cited from earlier work.
A further data set concerns P388 leukemic cells. The following applies: in vivo; cited from earlier work.
For the next data set, the system named is mouse leukemia L1210. Particulars: in vitro, compared with actinomycin D and adriamycin; cited from earlier work.
The next data set concerns L1210 leukemia. Particulars: in vivo; cited from earlier work.
In the next data set the test system is B16 melanoma. The following applies: in vivo; cited from earlier work.

Regarding `C/C=C/C=C/c1cc2cc3c(c(O)c2c(=O)[nH]1)C1(CC3)C(=O)c2c(O)c3c(c(O)c2C1=O)C(=O)C(OC)=CC3=O` (stereo not drawn) [KFMA, potassium salt of fredericamycin A], in [1], the “in vitro cytotoxic activity as compared to that of FMA” value is “equal or better”. The zone size in data set [2] and in data set [4] was 9.5 mm each time. The “solubility in chloroform-methanol-acetic acid (87:3:3) and methanol” value in the data set “solubility [3]” is recorded as “Soluble”. Further, the “solubility in dimethylacetamide, dimethylformamide, pyridine” value in the data set “solubility [3]” was “Readily Soluble”. Moreover, the “solubility in ethylacetate, acetonitrile and chloroform” value in the data set “solubility [3]” is “Sparingly soluble”. For the same compound, in the data set “solubility [3]”, the “solubility in hexanes, ether, acetone, benzene and carbon tetra chloride” value is listed as “Insoluble”. The “solubility in dimethyl sulfoxide” value in “solubility [3]” (Readily Soluble) came to 8 mg/1.5 ml. Also, the solubility in the data set “solubility [3]” (dmso-saline 5:95, organic solvent or mixture, read-out: solubility in dimethylsulfoxide-saline (5:95)) is 1000 µg/mL; in “solubility [3]” (dmso-saline 10:90, organic solvent or mixture, solution is transparent blue, read-out: solubility in dimethylsulfoxide-saline (10:90)), 1000 µg/mL; in “solubility [3]” (dmso-water 1:1, organic solvent or mixture, Readily Soluble, read-out: solubility in dimethylsulfoxide-water (1:1)), 3000 µg/mL; in “solubility [3]” (dmso-water 5:95, organic solvent or mixture, read-out: solubility in dimethylsulfoxide-water (5:95)), 1500 µg/mL; in “solubility [3]” (water, hand shaking 1 minute, vortexing 3 minutes, read-out: solubility in water), about 1000 µg/mL; in “solubility [5]” (Table 1) it was 1000 µg/mL. Further, the solubility in the data set “solubility [5]” (solubility studies in water) was about 1000 µg/mL. Moreover, the “stability of DMSO solution (anhydrous)” value in the data set “stability” (0° C./dark) is “several days”; in “stability” (room temp, 4 hrs), “fairly stable”. Besides, the “stability of anhydrous salt” value in “stability” (anhydrous, room temp.) is given as “stable”. Besides, in the data set “stability” (anhydrous, room temperature), the “stability of anhydrous salt, duration in words” value was “stable for extended period of time”. Moreover, the “temperature safely heated to with no decomposition” value in the data set “stability” (high vacuum, 4 hrs) is “up to 60 °C”. Moreover, the “hydrolysis to fredericamycin A” value in “stability” (in presence of moisture, acid) is listed as “Easily hydrolysable”. Moreover, the storage stability result in “stability” (sealed under nitrogen, anhydrous, amber container, 0° C. over silica gel) was “stable for several months”. Moreover, the “stability of aqueous solution” value in “stability” (water, about 1.0 mg/ml, room temperature) is “stable for almost an hour”. For the same compound, in the data set with P388 Lymph. Leukemia (1 mg/kg level), the “T/C value” turned out to be 178%. Also, the “% T/C” value is 119% in the data set on P388 Lymph. Leukemia (Expt #1, 0.125 mg/kg, water); 119% in the data set on P388 Lymph. Leukemia (Expt #1, 0.25 mg/kg, water); 153% with P388 Lymph. Leukemia (Expt #1, 0.50 mg/kg, water); 178% in the data set on P388 Lymph. Leukemia (Expt #1, 1.00 mg/kg, water); 110% in the data set with P388 Lymph. Leukemia (Expt #1, .063 mg/kg, water); 120% in the data set on P388 Lymph. Leukemia (Expt #2, 0.125 mg/kg, water). The “% T/C” value with P388 Lymph. Leukemia (Expt #2, 0.25 mg/kg, water) is reported as 132%; with P388 Lymph. Leukemia (Expt #2, 0.50 mg/kg, water), 160%; with P388 Lymph. Leukemia (Expt #2, 1.00 mg/kg, water), 175%; in the data set on P388 Lymph. Leukemia (Expt #2, .063 mg/kg, water), 112%. Moreover, the “% T/C: toxicity” value in the data set with P388 Lymph. Leukemia (Expt #1, 2.00 mg/kg, water) was “Toxic”. Moreover, the “activity against P388 leukemia, in words” value in the data set with P388 Lymph. Leukemia (all experiments performed) was “significant activity”. The “differences between male and female mice” value in the data set with P388 Lymph. Leukemia (male vs female mice) was “no differences observed”. For the same compound, the “pH (H2O)” value in the data set “pH of aqueous solution” (Table 1) was 8.9 ± 0.2. For the same compound, the “pH of aqueous solution” value in the data set “pH of aqueous solution” (about 1.0 mg/ml in water) was 8.65.

For `C/C=C/C=C/c1cc2cc3c(c(O)c2c(=O)[nH]1)C1(CC3)C(=O)c2c(O)c3c(c(O)c2C1=O)C(=O)C(OC)=CC3=O` (stereo not drawn) [Na-FMA, sodium salt of fredericamycin A], the hygroscopicity result in the data set “hygroscopicity” is “highly hygroscopic”. Further, in the data set “stability” (water, room temperature), the “stability of aqueous solution on longer standing” value is on record as “hydrolyzing back to fredericamycin A”. Moreover, the “pH (water)” value in “pH of aqueous solution” (0.5 mg/ml in water) is listed as 9.2±0.5. In the data set “solubility [5]” (hand shake and sonication (15 minutes)), this compound registered a solubility of 500 µg/mL.

For `C/C=C/C=C/c1cc2cc3c(c(O)c2c(=O)[nH]1)C1(CC3)C(=O)c2c(O)c3c(c(O)c2C1=O)C(=O)C(OC)=CC3=O` (stereo not drawn) [fredericamycin A], the “activity against Gram-positive bacteria” value with Gram-positive bacteria is on record as “good activity”. The “activity against C38 colon tumor” value in the data set with C38 colon tumor is listed as “ineffective”. The “activity against Lewis lung carcinoma” value with Lewis lung carcinoma was “ineffective”. Also, in the data set with CD8F mouse mammary tumor, the “reducing the median tumor weight” value is recorded as “effective”. Also, in the data set with Gram-negative bacteria, the “activity against Gram-negative bacteria” value is listed as “no activity”. Also, the “activity against LX-1 lung xenograft” value in the data set with LX-1 lung xenograft was “ineffective”. Also, the activity against fungi result in the data set with fungi is listed as “good activity”. Besides, the solubility result in data set [6] is “poor solubility”. For the same compound, the “activity against MX-1 breast xenograft” value with MX-1 breast xenograft was “ineffective”. The “% T/C” value was determined as 122% with P388 Lymph. Leukemia (0.06 mg/kg, DMSO); 146% in the data set on P388 Lymph. Leukemia (0.12 mg/kg, DMSO); 134% in the data set with P388 Lymph. Leukemia (0.25 mg/kg, DMSO); 200% with P388 Lymph. Leukemia (0.50 mg/kg, DMSO); 160% in the data set with P388 Lymph. Leukemia (1.00 mg/kg, DMSO). Also, the “% T/C: toxicity” value in the data set with P388 Lymph. Leukemia (>1.00 mg/kg, DMSO) is “Toxic”. In addition, the cytotoxicity entry with mouse leukemia P388 (in general, cells not specified) is given as “very cytotoxic”. In addition, the “ED50 against P388” value in the data set with mouse leukemia P388 (in vitro, compared with actinomycin D and adriamycin) was “compared closely to the reported values for actinomycin D and adriamycin”. In addition, in the data set with P388 leukemic cells, the “extending the life span of mice inoculated with P388” value is “effective”. Also, the “ED50 against L1210” value in the data set with mouse leukemia L1210 was “compared closely to the reported values for actinomycin D and adriamycin”. The “activity against L1210 leukemia” value in the data set on L1210 leukemia is listed as “ineffective”. Also, the “activity against B16 melanoma” value in the data set with B16 melanoma is recorded as “marginal activity”. For the same compound, the “solubility in water, in words” value in the data set “solubility [5]” is given as “almost insoluble”; in “solubility [5]” (listed as FMA), “virtually insoluble”.
